Data on 22 compounds can be found in the supplement of paper PMC11061612.

What all share (test): Bliss excess, mean over the matrix (fraction); higher = more synergy
Experiment [1] concerns NCI-H1650 (Lung Adenocarcinoma). A digest of the protocol: (§1)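 Cell lines grown in DMEM/F12 or RPMI with 10% FBS were plated in 1536-well plates and held 24 hours at 37°C, 5% CO2 before 72 hours of exposure to two-drug dose matrices, with DMSO typically at 0.2%. CellTiter-Glo 2.0 luminescence gave viability, which was converted to inhibition. Vehicle wells were set to 0 and blank wells to 1. Combination Emax is the second-highest inhibition in the matrix, and Bliss excess is the observed combination effect minus the expected EA + EB − EA·EB, where EA and EB are the single-agent effects.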

Experiment [2] has as its system CAPAN-2 (Pancreatic Carcinoma). A digest of the protocol: as §1
The test system of experiment [3] is MDST8 (Colorectal Carcinoma). A digest of the protocol:
as §1

Experiment [4] deals with NCI-H2141 (Small Cell Lung Carcinoma). A digest of the protocol:
as §1

Experiment [5] deals with BICR22 (Oral Cavity Carcinoma). The procedure, abridged:
as §1

Experiment [6] concerns COLO-320-HSR (Colorectal Carcinoma). The procedure, abridged:
as §1

Take `CN(C)CCCOc1ccc(-c2ccc3ncc4c(c3c2)n(C2CCOCC2)c(=O)n4C)cn1` [AZD0156] + C=CCn1c(=O)c2cnc(Nc3ccc(N4CCN(C)CC4)cc3)nc2n1-c1cccc(C(C)(C)O)n1 [AZD1775] (first compound max 1 µM, partner max 1 µM): the Bliss excess in experiment [1] is -0.0451; in experiment [2], -0.0709; in experiment [3] it was -0.0358; in experiment [4] it was -0.0944; in experiment [5], -0.0146; in experiment [6] it was -0.0454.

On to `CN(C)CCCOc1ccc(-c2ccc3ncc4c(c3c2)n(C2CCOCC2)c(=O)n4C)cn1` [AZD0156] + CCN(CCO)CCCOc1ccc2c(Nc3cc(CC(=O)Nc4cccc(F)c4)[nH]n3)ncnc2c1 [AZD2811] (first compound max 1 µM, 7x7, partner max 1 µM), for which the Bliss excess was -0.0571 in experiment [1]; -0.0637 in experiment [2]; 0.0279 in experiment [3]; -0.0327 in experiment [4]; 0.0091 in experiment [5]; -0.0278 in experiment [6].

With `CN(C)CCCOc1ccc(-c2ccc3ncc4c(c3c2)n(C2CCOCC2)c(=O)n4C)cn1` [AZD0156] + C[C@@H]1COCCN1C2=NC(=NC(=C2)C3(CC3)[S@](=N)(=O)C)C4=C5C=CNC5=NC=C4 [AZD6738] (first compound max 1 µM, 7x7, partner max 10 µM), the Bliss excess in experiment [1] is -0.0294; in experiment [2] it was -0.0591; in experiment [3], 0.0296; in experiment [4], -0.0766; in experiment [5], -0.0626; in experiment [6], -0.0146.

For `C=CCn1c(=O)c2cnc(Nc3ccc(N4CCN(C)CC4)cc3)nc2n1-c1cccc(C(C)(C)O)n1` [AZD1775] + C[C@@H]1COCCN1C2=NC(=NC(=C2)C3(CC3)[S@](=N)(=O)C)C4=C5C=CNC5=NC=C4 [AZD6738] (first compound max 1 µM, partner max 10 µM), the Bliss excess in experiment [1] was -0.0054; in experiment [2] it was -0.0608; in experiment [3] it was -0.0161; in experiment [4], 0.0248; in experiment [5] it was 0.0233; in experiment [6] it was 0.0852.

For the compound `C=CCn1c(=O)c2cnc(Nc3ccc(N4CCN(C)CC4)cc3)nc2n1-c1cccc(C(C)(C)O)n1` [AZD1775] + O=C(c1cc(Cc2n[nH]c(=O)c3ccccc23)ccc1F)N1CCN(C(=O)C2CC2)CC1 [Olaparib] (first compound max 1 µM, partner max 10 µM), the Bliss excess is -0.0643 in experiment [1]; -0.0576 in experiment [2]; -0.0308 in experiment [3]; -0.0638 in experiment [4]; -0.106 in experiment [5]; -0.0404 in experiment [6].

For `CCN(CCO)CCCOc1ccc2c(Nc3cc(CC(=O)Nc4cccc(F)c4)[nH]n3)ncnc2c1` [AZD2811] + C=CCn1c(=O)c2cnc(Nc3ccc(N4CCN(C)CC4)cc3)nc2n1-c1cccc(C(C)(C)O)n1 [AZD1775] (first compound max 1 µM, partner max 1 µM), the Bliss excess is -0.0277 in experiment [1]; -0.0462 in experiment [2]; 0.064 in experiment [3]; -0.0082 in experiment [4]; -0.0093 in experiment [5]; -0.0465 in experiment [6].

As to `CCN(CCO)CCCOc1ccc2c(Nc3cc(CC(=O)Nc4cccc(F)c4)[nH]n3)ncnc2c1` [AZD2811] + C[C@@H]1COCCN1C2=NC(=NC(=C2)C3(CC3)[S@](=N)(=O)C)C4=C5C=CNC5=NC=C4 [AZD6738] (first compound max 1 µM, 7x7, partner max 10 µM), the Bliss excess in experiment [1] was -0.0801; in experiment [2], -0.0412; in experiment [3], -0.0174; in experiment [4] it was -0.0873; in experiment [5] it was -0.059; in experiment [6], -0.0366.

Consider `CCN(CCO)CCCOc1ccc2c(Nc3cc(CC(=O)Nc4cccc(F)c4)[nH]n3)ncnc2c1` [AZD2811] + O=C(c1cc(Cc2n[nH]c(=O)c3ccccc23)ccc1F)N1CCN(C(=O)C2CC2)CC1 [Olaparib] (first compound max 1 µM, 7x7, partner max 10 µM), for which the Bliss excess is -0.025 in experiment [1]; -0.0222 in experiment [2]; 0.0271 in experiment [3]; -0.0557 in experiment [4]; -0.0861 in experiment [5]; -0.0179 in experiment [6].

For the compound `CN(CCO)CC[C@H](CSc1ccccc1)Nc1ccc(S(=O)(=O)NC(=O)c2ccc(N3CCC([C@@H](O)c4ccccc4-c4ccc(Cl)cc4)CC3)cc2)cc1S(=O)(=O)C(F)(F)F` [AZD4320] + C1CN(CCC1(C(=O)N[C@@H](CCO)C2=CC=C(C=C2)Cl)N)C3=NC=NC4=C3C=CN4 [Capivasertib] (first compound max 1 µM, 7x7, partner max 3 µM), the Bliss excess in experiment [1] was -0.0427; in experiment [2], -0.0534; in experiment [3], -0.0482; in experiment [4] it was -0.027; in experiment [5], 0.0051; in experiment [6], -0.0136.

Regarding `CN(CCO)CC[C@H](CSc1ccccc1)Nc1ccc(S(=O)(=O)NC(=O)c2ccc(N3CCC([C@@H](O)c4ccccc4-c4ccc(Cl)cc4)CC3)cc2)cc1S(=O)(=O)C(F)(F)F` [AZD4320] + C=CCn1c(=O)c2cnc(Nc3ccc(N4CCN(C)CC4)cc3)nc2n1-c1cccc(C(C)(C)O)n1 [AZD1775] (first compound max 1 µM, partner max 1 µM), the Bliss excess in experiment [1] is -0.0096; in experiment [2], 0.0665; in experiment [3] it was 0.0362; in experiment [4] it was 0.0423; in experiment [5], 0.0848; in experiment [6], -0.0268.

As for `CN(CCO)CC[C@H](CSc1ccccc1)Nc1ccc(S(=O)(=O)NC(=O)c2ccc(N3CCC([C@@H](O)c4ccccc4-c4ccc(Cl)cc4)CC3)cc2)cc1S(=O)(=O)C(F)(F)F` [AZD4320] + CCN(CCO)CCCOc1ccc2c(Nc3cc(CC(=O)Nc4cccc(F)c4)[nH]n3)ncnc2c1 [AZD2811] (first compound max 1 µM, 7x7, partner max 1 µM), the Bliss excess in experiment [1] is -0.0164; in experiment [2], 0.0013; in experiment [3] it was 0.0868; in experiment [4] it was 0.0443; in experiment [5] it was 0.0119; in experiment [6], -0.0087.

In the case of `CN(CCO)CC[C@H](CSc1ccccc1)Nc1ccc(S(=O)(=O)NC(=O)c2ccc(N3CCC([C@@H](O)c4ccccc4-c4ccc(Cl)cc4)CC3)cc2)cc1S(=O)(=O)C(F)(F)F` [AZD4320] + CN(C)CCCOc1ccc(-c2ccc3ncc4c(c3c2)n(C2CCOCC2)c(=O)n4C)cn1 [AZD0156] (first compound max 1 µM, 7x7, partner max 1 µM), the Bliss excess in experiment [1] was -0.0443; in experiment [2], -0.033; in experiment [3] it was -0.0419; in experiment [4], -0.0151; in experiment [5], -0.0364; in experiment [6], -0.0136.

Consider `CN(CCO)CC[C@H](CSc1ccccc1)Nc1ccc(S(=O)(=O)NC(=O)c2ccc(N3CCC([C@@H](O)c4ccccc4-c4ccc(Cl)cc4)CC3)cc2)cc1S(=O)(=O)C(F)(F)F` [AZD4320] + C[C@@H]1COCCN1C2=NC(=NC(=C2)C3(CC3)[S@](=N)(=O)C)C4=C5C=CNC5=NC=C4 [AZD6738] (first compound max 1 µM, 7x7, partner max 10 µM), for which the Bliss excess in experiment [1] was 0.0045; in experiment [2] it was -0.0461; in experiment [3], -0.0578; in experiment [5], -0.0433; in experiment [6], 0.0161.

On to `CN(CCO)CC[C@H](CSc1ccccc1)Nc1ccc(S(=O)(=O)NC(=O)c2ccc(N3CCC([C@@H](O)c4ccccc4-c4ccc(Cl)cc4)CC3)cc2)cc1S(=O)(=O)C(F)(F)F` [AZD4320] + C[C@@H](Nc1cc(F)cc(F)c1)c1cc(C(=O)N(C)C)cc2c(=O)cc(N3CCOCC3)oc12 [AZD8186] (first compound max 1 µM, 7x7, partner max 3 µM), for which the Bliss excess in experiment [1] was 0.0346; in experiment [2] it was -0.0099; in experiment [3], 0.025; in experiment [4], 0.0326; in experiment [5] it was -0.0108; in experiment [6] it was 0.0504.

Consider `CN(CCO)CC[C@H](CSc1ccccc1)Nc1ccc(S(=O)(=O)NC(=O)c2ccc(N3CCC([C@@H](O)c4ccccc4-c4ccc(Cl)cc4)CC3)cc2)cc1S(=O)(=O)C(F)(F)F` [AZD4320] + Cc1cc2ncnn2cc1Nc1ncc2c(n1)n(C1CCOCC1)c(=O)n2C [AZD7648] (first compound max 1 µM, 7x7, partner max 10 µM), for which the Bliss excess was -0.0227 in experiment [1]; -0.0217 in experiment [2]; -0.0283 in experiment [3]; 0.0109 in experiment [4]; -0.0054 in experiment [5]; -0.0099 in experiment [6].

Consider `CN(CCO)CC[C@H](CSc1ccccc1)Nc1ccc(S(=O)(=O)NC(=O)c2ccc(N3CCC([C@@H](O)c4ccccc4-c4ccc(Cl)cc4)CC3)cc2)cc1S(=O)(=O)C(F)(F)F` [AZD4320] + Cn1cnc2c(F)c(Nc3ccc(Br)cc3Cl)c(C(=O)NOCCO)cc21 [Selumetinib] (first compound max 1 µM, 7x7, partner max 3 µM), for which the Bliss excess was 0.0245 in experiment [1]; 0.0819 in experiment [2]; 0.0763 in experiment [3]; -0.008 in experiment [4]; -0.0468 in experiment [5]; 0.0102 in experiment [6].

As for `COc1nnc2ccc(N3CCC(c4ccc(OCCN5CCN(C)C(=O)[C@H]5C)cc4)CC3)nn12` [AZD5153] + C=CCn1c(=O)c2cnc(Nc3ccc(N4CCN(C)CC4)cc3)nc2n1-c1cccc(C(C)(C)O)n1 [AZD1775] (first compound max 1 µM, partner max 1 µM), the Bliss excess is -0.015 in experiment [1]; -0.0202 in experiment [2]; -0.0455 in experiment [3]; -0.021 in experiment [4]; -0.0972 in experiment [5]; -0.0801 in experiment [6].

Take `COc1nnc2ccc(N3CCC(c4ccc(OCCN5CCN(C)C(=O)[C@H]5C)cc4)CC3)nn12` [AZD5153] + CC1(C)CCC(CN2CCN(c3ccc(C(=O)NS(=O)(=O)c4ccc(NCC5CCOCC5)c([N+](=O)[O-])c4)c(Oc4cnc5[nH]ccc5c4)c3)CC2)=C(c2ccc(Cl)cc2)C1 [Venetoclax] (first compound max 1 µM, 7x7, partner max 1 µM): the Bliss excess in experiment [1] is -0.0349; in experiment [2] it was -0.0149; in experiment [3], -0.0566; in experiment [4] it was 0.0085; in experiment [5], -0.0613; in experiment [6], -0.0657.

As for `COc1nnc2ccc(N3CCC(c4ccc(OCCN5CCN(C)C(=O)[C@H]5C)cc4)CC3)nn12` [AZD5153] + CN(CC[C@H](CSC1=CC=CC=C1)NC2=C(C=C(C=C2)S(=O)(=O)NC(=O)C3=CC=C(C=C3)N4CCC(CC4)[C@H](C5=CC=CC=C5C6=CC=C(C=C6)Cl)O)S(=O)(=O)C(F)(F)F)CCO [AZD4320] (first compound max 1 µM, 7x7, partner max 1 µM), the Bliss excess in experiment [1] is -0.0124; in experiment [3] it was 0.0929; in experiment [4], 0.048.

Regarding `Cc1c2c(nn1C)CSCc1cc(n(C)n1)CSc1cc(c3ccccc3c1)OCCCc1c(C(=O)O)n(C)c3c-2c(Cl)ccc13` [AZD5991] + C[C@@H]1COCCN1C2=NC(=NC(=C2)C3(CC3)[S@](=N)(=O)C)C4=C5C=CNC5=NC=C4 [AZD6738] (first compound max 1 µM, 7x7, partner max 10 µM), the Bliss excess came out at 0.0392 in experiment [1]; 0.0543 in experiment [2]; 0.0675 in experiment [4]; 0.0224 in experiment [5]; 0.0363 in experiment [6].

As to `CC(=O)c1c(C)c2cnc(Nc3ccc(N4CCNCC4)cn3)nc2n(C2CCCC2)c1=O` [Palbociclib] + CN(CC[C@H](CSC1=CC=CC=C1)NC2=C(C=C(C=C2)S(=O)(=O)NC(=O)C3=CC=C(C=C3)N4CCC(CC4)[C@H](C5=CC=CC=C5C6=CC=C(C=C6)Cl)O)S(=O)(=O)C(F)(F)F)CCO [AZD4320] (first compound max 10 µM, 7x7, partner max 1 µM), the Bliss excess in experiment [1] is -0.0805; in experiment [3] it was -0.0168; in experiment [4] it was -0.067.

As for `C[C@@H](c1ccc2nccn2c1)n1nnc2ncc(-c3cnn(C)c3)nc21` [Savolitinib] + CN(CC[C@H](CSC1=CC=CC=C1)NC2=C(C=C(C=C2)S(=O)(=O)NC(=O)C3=CC=C(C=C3)N4CCC(CC4)[C@H](C5=CC=CC=C5C6=CC=C(C=C6)Cl)O)S(=O)(=O)C(F)(F)F)CCO [AZD4320] (first compound max 1 µM, 7x7, partner max 1 µM), the Bliss excess was -0.0646 in experiment [1], -0.0668 in experiment [3] and -0.0695 in experiment [4].
